Measurements from patent US6469065B1, “Nitrosated and nitrosylated α-adrenergic receptor antagonist, compositions and methods of use” (NitroMed, Inc., priority 1996, dated 2002).

Legend:
anesthetized rabbit [1] = assay: In Vivo Comparative Erectile Responses—I: intracavernosal pressure after intracavernosal injection; design: species or system Male New Zealand white rabbits
Procedure: (§1) Male New Zealand white rabbits weighing 2.5 kg were used as the animal model. Animals were first relaxed with an i.m. injection of 25 mg/kg ketamine prior to anesthesia with a bolus i.v. injection of 10 mg/kg Profol and maintained with i.v. infusion at 0.5 mg/kg/minutes. Ventilation of the animals was performed with 1% halothane plus 0.8 L/min O2 and 1 L/min N2O. A 22 gauge angiocatheter was placed in the femoral artery for measurement of systemic blood pressure. A dorsal incision was made in the penis and the corpora cavemosum exposed and cannulated with a 21 gauge butterfly needle to measure intracavernosal pressure.
(§2) Drugs at various concentrations were delivered intracavernosally at a volume of 150 μl through a 25 gauge needle. A 150 μl solution of a mixture of papaverine ([…]), phentolamine ([…]) and prostaglandin El (10 μg/ml) (pap/phent/PGE1) was injected in the corpora as a standard solution for comparison with the response of yohimbine, Example 1, Example 2, and the combination of yohimbine and Example 1. This pap/phent/PGE1 mixture is considered to cause a maximal erection-inducing effect.

anesthetized rabbit [2] = assay: In Vivo Comparative Erectile Responses—I: systemic blood pressure after intracavernosal injection; design: species or system Male New Zealand white rabbits; details: 500 μg, FIG. 5A
Procedure: as §1, §2

anesthetized rabbit [3] = assay: In vivo Comparative Erectile Responses—II: intracavernosal blood pressure (ICP) and duration; design: species or system White New Zealand male rabbits
Procedure: White New Zealand male rabbits (2.6-3.0 kg) were anesthetized with pentobarbital sodium (30 mg/kg). The femoral artery was exposed and indwelled with PE 50 tubing connected to a transducer for recording systemic arterial blood pressure. The ventral aspect of the penis was then exposed via surgical cut and intracavernosal blood pressure was measured using a 23 gauge needle inserted to the corpus cavernosum. The contralateral corpus cavemosum was implanted with a 23 gauge needle for the administration of drugs.
Following all surgical procedures, rabbits were allowed to rest for 10 minutes during which intracavernosal blood pressure (ICP) and mean arterial blood pressure (MABP) were continuously recorded.
Drugs at various concentrations were prepared as aqueous solution (injection volume of 200 μL). Following drug injection the tubing was flushed with 100 μL distilled water. All drug treatments were administered after stable intracavernosal and systemic blood pressures were established. If an increase in intracavernosal blood pressure (ICP) was observed, the effect was monitored throughout its entire duration.
The following parameters were obtained from each experimental recording: (i) Maximum ICP (mm Hg), (ii) Duration (minutes), defined as the time in minutes, that the increase in ICP is greater than the 50% difference between baseline and maximum response. Data were analyzed using ANOVA statistical analysis (p<0.05).

N[C@@H](CCC(=O)N[C@@H](CSN=O)C(=O)NCC(=O)O)C(=O)O [Example 1, 4-(N-{(1R)-1-[N-(carboxymethyl)carbamoyl]-2-(nitrosothio)ethyl}carbamoyl)(2S)-2-aminobutanoic Acid]
percent peak erectile response relative to pap/phent/PGE1 (anesthetized rabbit [1]; 500 μg dose): near maximal response | duration of the erectile response (anesthetized rabbit [1]; 500 μg, FIG. 2): much longer duration of action

Cc1cc(OCCN(C)C)c(C(C)C)cc1OC(=O)CC(C)(C)SN=O.Cl [Example 6, 4-[2-(Dimethylamino)ethoxy]-2-methyl-5-(methylethyl)phenyl 3-methyl-3-(nitrosothio)butanoate Hydrochloride]
percent peak erectile response relative to pap/phent/PGE1 (anesthetized rabbit [1]; 1 mg dose): more efficacious than 1 mg moxisylyte | duration of the erectile response (anesthetized rabbit [1]; 1 mg, FIG. 7): longer duration of erectile response compared to 1 mg moxisylyte | duration of the erectile response (anesthetized rabbit [1]; 2 mg, FIG. 7): much longer duration of action compared to 2 mg moxisylyte

COC(=O)[C@@H]1[C@H]2C[C@H]3c4[nH]c5ccccc5c4CCN3C[C@@H]2CC[C@@H]1O [yohimbine, reference compound]
percent peak erectile response relative to pap/phent/PGE1 (anesthetized rabbit [1]; 150 μg and 500 μg, FIG. 1): dose dependently induced erectile response | duration of the erectile response (anesthetized rabbit [1]; submaximal (150 μg) and maximal (500 μg) efficacy doses, FIG. 2): very short duration of action

2-Acyl-17α(3-methyl-3-(nitrosothio)butanoxy)yohimban-16α-carboxylic Acid methyl ester hydrochloride Salt [Example 2]
effect on systemic blood pressure (anesthetized rabbit [2]): did not produce any effect on systemic blood pressure | duration of the erectile response (anesthetized rabbit [1]; 500 μg and 1 mg, FIG. 4): longer duration of action compared to yohimbine | percent peak erectile response relative to pap/phent/PGE1 (anesthetized rabbit [1]; 500 μg dose): equipotent to the standard dose of pap/phent/PGE1 | percent peak erectile response relative to pap/phent/PGE1 (anesthetized rabbit [1]; 1 mg dose): at least equal to or more efficacious than the standard dose of the pap/phent/PGE1 mixture

4-[2-(Dimethylamino)ethoxy]-2-methyl-5-(methylethyl)phenyl 2-({N-[2-methyl-2-(nitrosothio)propyl]carbamoyl}methoxy)acetate, Fumaric Acid Salt [Example 9]
doses needed to produce a robust increase of ICP (anesthetized rabbit [3]; 0.2-1.6 mg tested, FIG. 8 to FIG. 11): lower than the doses of Example 10 | duration of the erectile response (anesthetized rabbit [3]; 0.2-1.6 mg tested, FIG. 9): somewhat shorter than that of Example 10

Cc1cc(OCCN(C)C)c(C(C)C)cc1OC(=O)CCC(=O)OCCC1(SN=O)C2CC3CC(C2)CC1C3.O=C(O)/C=C/C(=O)O (centres unmarked) [Example 10, 4-[2-(dimethylamino)ethoxy]-2-methyl-5-(methylethyl)phenyl 2-[2-(nitrosothio)adamantan-2-yl]ethyl butane-1,4-dioate, Fumaric Acid Salt]
peak erectile response, increase of ICP (magnitude) (anesthetized rabbit [3]; 1.07 mg, FIG. 10): moderate | duration of the erectile response (anesthetized rabbit [3]; 1.07 mg, FIG. 11): short-lasting | duration of increase in intracavernosal pressure (anesthetized rabbit [3]; 2.13 mg): robust effect | magnitude of increase in intracavernosal pressure (anesthetized rabbit [3]; 2.13 mg): robust effect | duration of increase in intracavernosal pressure (anesthetized rabbit [3]; 4.26 mg): robust effect | duration of the erectile response (anesthetized rabbit [3]; 4.26 mg): exceeded 120 minutes | magnitude of increase in intracavernosal pressure (anesthetized rabbit [3]; 4.26 mg): robust effect
